Experimental data: paper PMC9841576, “Characterisation of C101248: A novel selective THIK-1 channel inhibitor for the modulation of microglial NLRP3-inflammasome” (Neuropharmacology, 2023)

Assays:
[1] = tested on: NLRP3-dependent release of IL-1β; experiment: IL-1β release from LPS-primed neonatal microglia exposed to K+-free buffer; type: cell-based, mouse
Procedure: In brief, brains were dissected by removing meninges, cerebellum, and olfactory bulbs before tissue was finely minced with a scalpel then digested with papain solution for 20 min at 37 °C. Tissue was dissociated and the resulting cell suspension was passed through a 40 μm cell strainer (Greiner Bio-One). Cells were centrifuged at 300 g for 5 min then resuspended in culture medium (DMEM, 10% FBS, 1% PenStrep) and plated in T75 collagen-coated flasks (Greiner Bio-One). A full medium change was caried out on day 2 while a half medium was changed on day 5 in the presence of 5 ng/ml of mouse GM-CSF (R&D Systems). Microglia were shaken off between day 9 and 11 and plated onto poly-D-lysine coated 96-well plates (μclear, Greiner Bio-One) at a density of 20,000 cells/well.
(§1) IL-1β from culture supernatants was measured with DuoSet ELISA kit (R&D Systems) following the manufacturer instructions.

[2] = tested on: NLRP3-dependent release of IL-1β; experiment: LPS/ATP-induced IL-1β release from differentiated THP1 cells overexpressing human THIK-1; type: cell-based; conditions: Homo sapiens, THP-1; THIK-1 overexpressing differentiated THP1 cells, LPS/ATP; read-out: IC50, inhibition of IL-1β release
Procedure: THP1 cells, obtained from ATCC, are monocytes isolated from peripheral blood of a leukaemia patient. THP1 cells were grown in RPMI 1640 supplemented with 10% fetal bovine serum (FBS, Hyclone), 1% PenStrep (Invitrogen), and 1% GlutaMax (Invitrogen), and 0.05 mM of 2-mercaptoethanol. To overexpress human THIK-1, THP1 cells were differentiated with 100 ng/ml PMA for 24 h prior to transfection with THIK-1 mRNA synthesized as described in the supplementary material. Cell suspensions (2.5 × 10^6 cells in […]) in the presence of 200 μg/ml mRNA were electroporated with the MaxCyte (STX instrument) in an OC-25 MaxCyte Electroporation cassette using manufacturer settings for THP1 cells. Cell suspensions were transferred to a 6-well plate and allowed to recover for 20 min at 37 °C. Cells were seeded into 384-well plates (10,000 cells/well) for thallium flux assays or 96-well plates (50,000 cells/well) for inflammasome assays the following day. Overexpressing and mock-transfected cells were primed with 100 ng/ml of LPS for 3.5 h prior to addition of compounds 30 min before stimulation with 5 mM ATP. Supernatants were collected 2 h after addition of ATP and stored at −20 °C until the detection of IL-1β.
as §1

[3] = target: T1, THIK-1 K+ currents in microglia (Mus musculus, UniProt Q8R1P5); experiment: Whole-cell patch clamp of microglia in acute hippocampal slices, wild-type mice; type: cell-based
T1 construct: To study the effect of C10248 in native brain tissue; from tissue; host or cells: microglia in acute hippocampal slices of 3-4 month old Cx3Cr1-GFP mice
T1 sequence (Q8R1P5 whole entry): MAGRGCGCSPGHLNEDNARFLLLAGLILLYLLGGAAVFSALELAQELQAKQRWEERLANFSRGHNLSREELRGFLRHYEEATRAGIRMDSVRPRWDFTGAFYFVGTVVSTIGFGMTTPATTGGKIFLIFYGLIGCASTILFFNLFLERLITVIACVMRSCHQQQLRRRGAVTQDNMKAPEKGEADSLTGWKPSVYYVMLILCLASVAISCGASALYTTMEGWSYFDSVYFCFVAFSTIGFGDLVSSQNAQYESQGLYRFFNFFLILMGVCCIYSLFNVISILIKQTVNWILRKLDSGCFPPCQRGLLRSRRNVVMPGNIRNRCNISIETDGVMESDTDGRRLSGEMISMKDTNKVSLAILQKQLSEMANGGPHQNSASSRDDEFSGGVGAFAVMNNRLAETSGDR
Procedure: Acute hippocampal slices (300 μm thick), from 3 to 4 months old mice, were prepared using a specially adapted protective slicing solution ([Ting et al., 2014]) containing (mM) 93 choline chloride, 20 HEPES, 30 NaHCO3, 2.5 KCl, 0.5 CaCl2, 10 MgCl2, 1.2 NaH2PO4, 25 glucose, 1 kynurenic acid, 5 Na-ascorbate, 3 Na-pyruvate, pH adjusted to 7.4, bubbled with 95% O2/5% CO2 and cooled at <4 °C, and a recovery solution containing (mM) 92 NaCl, 20 HEPES, 30 NaHCO3, 2.5 KCl, 2 CaCl2, 1 MgCl2, 1.2 NaH2PO4, 25 glucose, 1 kynurenic acid, 5 Na-ascorbate, 3 Na-pyruvate, pH set to 7.4 and bubbled with 95% O2/5% CO2
Immediately after slicing, slices were placed for 13 min in warm (33–35 °C) slicing solution and then transferred to recovery solution at room temperature until experimental usage. […] Slices were perfused with bicarbonate-buffered solution, at 34–36 °C for all experiments, containing (mM) 124 NaCl, 2.5 KCl, 26 NaHCO3, 1 NaH2PO4, 2 CaCl2, 1 MgCl2, 10 glucose, bubbled with 95% O2/5% CO2. Microglia were whole-cell clamped with electrodes containing K-gluconate based solution, comprising (mM) 130 K-glu, 4 NaCl, 1 CaCl2, 10 HEPES, 10 EGTA, 4 MgATP, 0.5 Na2GTP, pH set to 7.2 with KOH and osmolarity adjusted to […]. […] Currents were filtered at 1 kHz, digitized (10 kHz) and analysed off-line using pClamp10 software.

IC50 ([1]; Mus musculus, wild-type neonatal microglia, LPS-primed, K+-free buffer, read-out: IC50, inhibition of IL-1β release): 106 nM
IC50 [2]: 135 nM
effect on microglial resting membrane potential ([3]; 5 μM, current-clamp, no externally applied ATP): significantly depolarised
effect on 100 μM ATP-evoked THIK-1 K+ currents ([3]; 0.05, 0.5 and 5 μM, microglia voltage-clamped at 0 mV): dose-dependently inhibited
SMILES: Nc1nonc1-c1nc2ccccc2n1Cc1ccncc1 [C101248]
reduction of IL-1β release ([1]; 10 μM, wild type neonatal microglia, K+-free buffer): ~55%
effect on K+-free buffer-induced release of IL-1β in THIK-1 KO microglia ([1]; THIK-1 KO neonatal microglia, 10 μM): no impact
